Data from US20040121991A1, “Dehydroepiandrosterone (DHEA) congeners for prevention and/or treatment of ulcers” (priority 2002, published 2004).
“And” between values parts separate entries of the source, which are not always exact repeats. Equal values may be shown once.

Assays:
[1] = tested on: oral mucositis; assay: Acute radiation model of oral mucositis in hamsters; assay type: in vivo, Male Golden Syrian hamsters; conditions: day -1 to day 27; for weight change following irradiation: 40 Gy on day 0, DHEA-cyclodextrin complex; for daily mucositis scores vs saline control: score scale 0-5
From the text: The acute radiation model in hamsters (see, e.g., Sonis et al., 2000) has proven to be an accurate, efficient and cost-effective technique to provide a preliminary evaluation of anti-mucositis compounds. The course of mucositis in this model is well defined and results in peak ulceration scores approximately 14-16 days following radiation. The acute model has been used to study specific mechanistic elements in the pathogenesis of mucositis. Molecules that show efficacy in the acute radiation model may be further evaluated in the more complex models of fractionated radiation, chemotherapy, or concomitant therapy. In this example, an acute radiation dose of 40 Gy on day 0 was administered and clinically significant mucositis was observed around day 14.
Animals. Male Golden Syrian hamsters were randomly and prospectively divided into six (6) treatment groups prior to irradiation as follows:
Hamsters were given an acute radiation dose directed to their oral mucosa. Test materials were applied by injection (once per day) or by oral dosing (either once or twice per day. Oral administrations were done using feeding needles. Dosing began the day before radiation (day −1) and continued until day 27. The test material utilized was an Inflabloc® pharmaceutical preparation, which, for the present example, comprised a complex of DHEA and cyclodextrin.
Starting on Day 6 and continuing every second day thereafter (days 8, 10, 12, 14, 16, 18, 20, 22, 24, 26, & 28), each animal was evaluated for mucositis scoring.
Mucositis Scoring. Parameters measured were the mucositis score, weight change and survival. For the evaluation of mucositis, the animals were anesthetized with inhalation anesthetics, and the left pouch everted. Mucositis was scored visually by comparison to a validated photographic scale, ranging from 0 for normal, to 5 for severe ulceration (clinical scoring).
A score of 1-2 is considered to represent a mild stage of the disease, whereas a score of 3-5 is considered to indicate moderate to severe mucositis. Following visual scoring, a photograph was taken of each animal's mucosa using a standardized technique. At the conclusion of the experiment, all film was developed and the photographs randomly numbered. At least two independent trained observers graded the photographs in blinded fashion using the above-described scale (blinded scoring).
The effect on mucositis of each drug treatment compared to placebo was assessed according to these parameters: the difference in the number of days hamsters in each group have severe (score 3) mucositis and the rank sum differences in daily mucositis scores. On each evaluation day, the number of animals with a blinded mucositis score of 3 in each drug treatment group, was compared to the control group. Differences were analyzed on a cumulative basis. For each evaluation day the scores of the control group were compared to those of the placebo group and vehicle group.
Mucositis Induction. Mucositis was induced using a standardized acute radiation protocol using a single dose of radiation (40 Gy/dose) on Day 0.

[2] = tested on: TNBS-induced colonic damage; assay type: in vivo, Male Wistar rats
Experimental: In this Example, the effects of DHEA were evaluated in the TNBS model (see, e.g., Boughton-Smith et al., 1988; Morris et al., 1989; Reuter et al., 1996) at a defined oral dose administered twice a day by gavage, using a low intracolonic concentration of TNBS (10 mg). This challenge dose of TNBS is known to generate reproducible yet not unduly severe mucosal injury in the colon, as determined 3 days after instillation. In this current investigation, colonic macroscopic injury has been assessed. In addition to DHEA, the effect of a single daily low oral dose of dexamethasone, which has a broad profile of anti-inflammatory actions, was also evaluated in this model.
Male Wistar rats (220-300 g) were randomised into groups before commencement of the study. On day 0, the rats were transiently anaesthetised with ether and TNBS (10 mg in 0.25 ml of 50% ethanol) was instilled into the colon using a soft plastic catheter inserted in the rat rectum. The rats were allowed to recover with free access to food and drinking water. At the end of the Experiment, 72 h after TNBS administration (i.e. on the morning of day 3), the distal colon was dissected, photographed and stored appropriately for subsequent analyses. Macroscopic scoring of distal 8 cm of colon was measured as the primary efficacy parameter. In addition, the weight of the colonic segment was assessed as an indirect and non-specific marker of oedema, and the body weight of the animals was determined each day of the study.
The groups (n=8-12) for study with TNBS challenge were: (a) saline control administered in 0.5 ml p.o. per rat, b.i.d; (b) DHEA (50 mg per rat, b.i.d); (c) dexamethasone (0.3 mg/kg, oral, once daily); (d) control non-challenged with TNBS and non-drug-treated (received only salineb.i.d.). The DHEA was administered orally, twice daily for 48 h before TNBS administration, on Day 0 with TNBS administration and on Day 1 and 2. The DHEA was administered as a solid bicarbonate composite providing high bioavailability. Tissues were removed 72 h after TNBS administration (Day 3). Saline treated animals on the final day were 95.6+/−1.7% of mean starting body weight. Similarly, DHEA-treated animals were 95.4+/−1.1% of their mean starting body weight. Weight loss in the Dexamethasone treatment group was significant at 84.5+/−1.3% of starting weight.

C[C@]12CC[C@H](O)CC1=CC[C@@H]1[C@@H]2CC[C@]2(C)C(=O)CC[C@@H]12 [DHEA, (3β)-3-hydroxyandrost-5-en-17-one]
weight change following irradiation ([1]; 25 mg/kg/day ip): weight gain patterns that closely corresponded to those observed in the control group
daily mucositis scores vs saline control ([1]; 50 mg/kg i.p.): significantly lower than those in the saline control group
weight change following irradiation ([1]; 50 mg/kg/day ip): weight gain patterns that closely corresponded to those observed in the control group
weight change following irradiation ([1]; 250 mg/kg/day p.o.): no pattern of weight loss
daily mucositis scores vs saline control ([1]; 500 mg/kg/day oral): significantly lower than those in the saline control group
weight change following irradiation ([1]; 500 mg/kg/day p.o.): no pattern of weight loss
body weight on the final day, % of mean starting body weight ([2]; DHEA 50 mg per rat b.i.d. oral, solid bicarbonate composite, TNBS 10 mg, day 3): 95.4+/−1.1%
area of colonic injury, % of total colonic area of the segment ([2]; DHEA 50 mg per rat b.i.d. oral, 72 h after TNBS challenge, TNBS control 48±2%): 31+/−3%
reduction in the area of colonic injury ([2]; DHEA 50 mg per rat b.i.d. oral, vs TNBS control, P<0.001): 40% and ~40%
colon weight of the standard segment (index of inflammatory oedema) ([2]; DHEA 50 mg per rat b.i.d. oral, vs saline + TNBS, end of study): significantly (P<0.001) reduced

C[C@@H]1C[C@H]2[C@@H]3CCC4=CC(=O)C=C[C@]4(C)[C@@]3(F)[C@@H](O)C[C@]2(C)[C@@]1(O)C(=O)CO [dexamethasone]
area of colonic injury, % of the mucosal area ([2]; dexamethasone 0.3 mg/kg once a day oral, 72 h after TNBS challenge, n=8, TNBS control 48±2%): 41±5%
